Experimental data from patent US20180296456A1, “Decapeptide-12 Modulation of Sirtuin Gene Expression in Epidermal Keratinocyte Progenitors” (Escape Therapeutics, Inc., priority 2017, published 2018).
Peptide text beside a SMILES is read from it.

Key:
[1] = Trypan blue cell viability, 7 days, epidermal progenitors; type: cell-based; details: human, relative to control, read-out: epidermal progenitor viability after 7 days
Protocol: (§1) The effect of each of the decapeptides upon cell viability was also tested. In particular, cells were incubated with the decapeptide at various concentrations and then counted for viability relative to the control (untreated cells) using trypan blue. Cytotoxicity was measured according to the following formula:
(§2) [1−(# of cells in control−# of live cells in test sample)/# of cells in control]×100 percent.

[2] = system: SIRT7; assay: SIRT7 transcription, semi-quantitative RT-PCR in human epidermal progenitors; type: cell-based; details: 72 h
How it was run: (§3)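 Human neonatal epidermal progenitors in Epilife (60 μM CaCl2) treated 72 h with decapeptides at 10, 30, 50, 100 and 300 μM (0.05% final DMSO). cDNA from 2 μg total RNA; semi-quantitative PCR, 34 cycles, with band densitometry on agarose gels expressed as ratio to 18S.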

[3] = MTT cell proliferation assay, melanoblasts; type: cell-based, human; details: human, MTT, 72 h, read-out: melanoblast proliferation rate after 72 hours
Protocol: (§4) Proliferation rates for three human cell lines (epidermal progenitors, melanoblasts, and fibroblasts) were determined using a TACS® MTT Cell Proliferation Kit. Cells were seeded at 2.5×10^4/well in 96-well plates in a humidified atmosphere with 5 percent CO2 at 37 degrees Celsius. Twenty-four hours later, the decapeptides were added to the corresponding wells at varying concentrations and incubated for 72 hours. The remainder of the procedure was performed following the manufacturer's protocol.

[4] = system: SIRT2; assay: SIRT2 transcription, semi-quantitative RT-PCR in human epidermal progenitors; type: cell-based; details: 72 h
How it was run: as §3

[5] = system: SIRT4; assay: SIRT4 transcription, semi-quantitative RT-PCR in human epidermal progenitors; type: cell-based; details: 72 h
[6] = MTT cell proliferation assay, fibroblasts; type: cell-based, human; details: human, MTT, 72 h, read-out: fibroblast proliferation rate after 72 hours
Protocol: as §4

[7] = system: SIRT1; assay: SIRT1 transcription, semi-quantitative RT-PCR in human epidermal progenitors; type: cell-based; details: 72 h
How it was run: as §3

[8] = in vitro; type: cell-based; details: human, human epidermal progenitors
How it was run: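 Epidermal progenitors were seeded at 2.5×10^4/well and kept at 37 °C in 5% CO2. Proliferation was measured by MTT.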

[9] = Trypan blue cell viability, 7 days, melanoblasts; type: cell-based; details: human, relative to control, read-out: melanoblast viability after 7 days
Protocol: as §1, §2

With `CCCCCCCCCCCCCCCC(=O)N[C@@H](Cc1ccc(O)cc1)C(=O)N[C@@H](CCCNC(=N)N)C(=O)N[C@@H](CO)C(=O)N[C@@H](CCCNC(=N)N)C(=O)N[C@@H](CCCCN)C(=O)N[C@H](Cc1ccc(O)cc1)C(=O)N[C@@H](CO)C(=O)N[C@@H](CO)C(=O)N[C@@H](Cc1c[nH]c2ccccc12)C(=O)N[C@@H](Cc1ccc(O)cc1)C(N)=O` [P4B, Palmitoyl-YRSRK[*Y]SSWY-amide] (HELM PEPTIDE1{[CCCCCCCCCCCCCCCC(=O)[*:2]].Y.R.S.R.K.[dY].S.S.W.Y.[am]}$$$$V2.0) the viability at 168 h, 3 µM [1] was 100%, the viability at 168 h, 10 µM [1] was 99 ± 1% and the viability at 168 h, 30 µM [1] was 98.2 ± 1%. For the same molecule, the viability at 168 h, 50 µM [1] was 98 ± 1%, the viability at 168 h, 100 µM [1] was 97 ± 1% and the viability at 168 h, 300 µM [1] was 96.5 ± 2%. The viability at 168 h, 500 µM [1] was 95.5 ± 2%, the viability at 168 h, 1000 µM [1] was 94.5 ± 2% and the “SIRT7 transcription increase relative to control” value ([2]; 10 μM) was 20 ± 6%. The “SIRT7 transcription increase relative to control” value ([2]; 30 μM) was 23 ± 5%, the “SIRT7 transcription increase relative to control” value ([2]; 50 μM) was 54 ± 7% and the “SIRT7 transcription increase relative to control” value ([2]; 100 μM) was 61 ± 7%. For the same molecule, the “SIRT7 transcription increase relative to control” value ([2]; 300 μM) was 103 ± 8%, the viability at 72 h, 3 µM [3] was 100% and the viability at 72 h, 10 µM [3] was 100%. The viability at 72 h, 30 µM [3] was 99 ± 1%, the viability at 72 h, 50 µM [3] was 98 ± 1% and the viability at 72 h, 100 µM [3] was 97 ± 2%. It also gave a viability at 72 h, 300 µM [3] of 96 ± 2%, a viability at 72 h, 500 µM [3] of 95 ± 2% and a viability at 72 h, 1000 µM [3] of 94 ± 2%. For the same molecule, the “SIRT2 transcription increase relative to control” value ([4]; 10 μM) was 5 ± 1%, the “SIRT2 transcription increase relative to control” value ([4]; 30 μM) was 8 ± 3% and the “SIRT2 transcription increase relative to control” value ([4]; 50 μM) was 17 ± 6%. The “SIRT2 transcription increase relative to control” value ([4]; 100 μM) was 52 ± 4%, the “SIRT2 transcription increase relative to control” value ([4]; 300 μM) was 40 ± 4% and the “SIRT4 transcription increase relative to control” value ([5]; 10 μM) was 9 ± 1%. For the same molecule, the “SIRT4 transcription increase relative to control” value ([5]; 30 μM) was 10 ± 1%, the “SIRT4 transcription increase relative to control” value ([5]; 50 μM) was 17 ± 1% and the “SIRT4 transcription increase relative to control” value ([5]; 100 μM) was 86 ± 6%. For the same molecule, the “SIRT4 transcription increase relative to control” value ([5]; 300 μM) was 49 ± 4%, the viability at 72 h, 3 µM [6] was 100% and the viability at 72 h, 10 µM [6] was 99 ± 1%. For the same molecule, the viability at 72 h, 30 µM [6] was 99 ± 1%, the viability at 72 h, 50 µM [6] was 99 ± 1% and the viability at 72 h, 100 µM [6] was 98 ± 2%. The viability at 72 h, 300 µM [6] was 97 ± 2%, the viability at 72 h, 500 µM [6] was 96 ± 2% and the viability at 72 h, 1000 µM [6] was 96 ± 2%. The “SIRT1 transcription increase relative to control” value ([7]; 10 μM) was 10 ± 4%, the “SIRT1 transcription increase relative to control” value ([7]; 30 μM) was 10 ± 3% and the “SIRT1 transcription increase relative to control” value ([7]; 50 μM) was 48 ± 3%. For the same molecule, the “SIRT1 transcription increase relative to control” value ([7]; 100 μM) was 135 ± 12%, the “SIRT1 transcription increase relative to control” value ([7]; 300 μM) was 155 ± 3% and the viability at 72 h, 3 µM [8] was 99 ± 1%. For the same molecule, the viability at 72 h, 10 µM [8] was 99 ± 1%, the viability at 72 h, 30 µM [8] was 98 ± 1% and the viability at 72 h, 50 µM [8] was 98 ± 1%. It also gave a viability at 72 h, 100 µM [8] of 97 ± 1%, a viability at 72 h, 300 µM [8] of 97 ± 1% and a viability at 72 h, 500 µM [8] of 95 ± 2%. For the same molecule, the viability at 72 h, 1000 µM [8] was 94 ± 2%, the viability at 168 h, 3 µM [9] was 100% and the viability at 168 h, 10 µM [9] was 98.5 ± 1%. It also gave a viability at 168 h, 30 µM [9] of 97.8 ± 3%, a viability at 168 h, 50 µM [9] of 97.2 ± 2% and a viability at 168 h, 100 µM [9] of 96.3 ± 2%. The viability at 168 h, 300 µM [9] was 95.6 ± 2%, the viability at 168 h, 500 µM [9] was 94.6 ± 2% and the viability at 168 h, 1000 µM [9] was 93.8 ± 2%.
With “Ac-YRSRKYSSWY-NH2 [P4C, Acetyl-YRSRKYSSWY-amide]” the viability at 168 h, 3 µM [1] was 100%, the viability at 168 h, 10 µM [1] was 99 ± 1% and the viability at 168 h, 30 µM [1] was 98 ± 1%. The viability at 168 h, 50 µM [1] was 97.4 ± 1%, the viability at 168 h, 100 µM [1] was 96.6 ± 2% and the viability at 168 h, 300 µM [1] was 95.7 ± 3%. For the same molecule, the viability at 168 h, 500 µM [1] was 94.8 ± 3%, the viability at 168 h, 1000 µM [1] was 94 ± 3% and the “SIRT7 transcription increase relative to control” value ([2]; 10 μM) was 14 ± 5%. For the same molecule, the “SIRT7 transcription increase relative to control” value ([2]; 30 μM) was 7 ± 2%, the “SIRT7 transcription increase relative to control” value ([2]; 50 μM) was 46 ± 5% and the “SIRT7 transcription increase relative to control” value ([2]; 100 μM) was 80 ± 11%. The “SIRT7 transcription increase relative to control” value ([2]; 300 μM) was 130 ± 9%, the viability at 72 h, 3 µM [3] was 100% and the viability at 72 h, 10 µM [3] was 100%. For the same molecule, the viability at 72 h, 30 µM [3] was 99 ± 1%, the viability at 72 h, 50 µM [3] was 98 ± 1% and the viability at 72 h, 100 µM [3] was 97 ± 2%. For the same molecule, the viability at 72 h, 300 µM [3] was 96 ± 3%, the viability at 72 h, 500 µM [3] was 95 ± 2% and the viability at 72 h, 1000 µM [3] was 95 ± 2%. The “SIRT2 transcription increase relative to control” value ([4]; 10 μM) was 5.00%, the “SIRT2 transcription increase relative to control” value ([4]; 30 μM) was 2 ± 1% and the “SIRT2 transcription increase relative to control” value ([4]; 50 μM) was 1.00%. The “SIRT2 transcription increase relative to control” value ([4]; 100 μM) was 42 ± 1%, the “SIRT2 transcription increase relative to control” value ([4]; 300 μM) was 31 ± 9% and the “SIRT4 transcription increase relative to control” value ([5]; 10 μM) was 3 ± 1%. For the same molecule, the “SIRT4 transcription increase relative to control” value ([5]; 30 μM) was 3 ± 1%, the “SIRT4 transcription increase relative to control” value ([5]; 50 μM) was 11 ± 6% and the “SIRT4 transcription increase relative to control” value ([5]; 100 μM) was 32 ± 9%. For the same molecule, the “SIRT4 transcription increase relative to control” value ([5]; 300 μM) was 67 ± 9%, the viability at 72 h, 3 µM [6] was 100% and the viability at 72 h, 10 µM [6] was 99 ± 1%. It also gave a viability at 72 h, 30 µM [6] of 99 ± 1%, a viability at 72 h, 50 µM [6] of 99 ± 1% and a viability at 72 h, 100 µM [6] of 98 ± 2%. It also gave a viability at 72 h, 300 µM [6] of 97 ± 2%, a viability at 72 h, 500 µM [6] of 96 ± 2% and a viability at 72 h, 1000 µM [6] of 96 ± 2%. The “SIRT1 transcription increase relative to control” value ([7]; 10 μM) was 7 ± 3%, the “SIRT1 transcription increase relative to control” value ([7]; 30 μM) was 5.00% and the “SIRT1 transcription increase relative to control” value ([7]; 50 μM) was 1.00%. The “SIRT1 transcription increase relative to control” value ([7]; 100 μM) was 137 ± 8%, the “SIRT1 transcription increase relative to control” value ([7]; 300 μM) was 190 ± 9% and the viability at 72 h, 3 µM [8] was 99 ± 1%. For the same molecule, the viability at 72 h, 10 µM [8] was 99 ± 1%, the viability at 72 h, 30 µM [8] was 98 ± 1% and the viability at 72 h, 50 µM [8] was 98 ± 1%. For the same molecule, the viability at 72 h, 100 µM [8] was 97 ± 1%, the viability at 72 h, 300 µM [8] was 97 ± 1% and the viability at 72 h, 500 µM [8] was 96 ± 2%. It also gave a viability at 72 h, 1000 µM [8] of 96 ± 2%, a viability at 168 h, 3 µM [9] of 100% and a viability at 168 h, 10 µM [9] of 99 ± 1%. The viability at 168 h, 30 µM [9] was 98.4 ± 1%, the viability at 168 h, 50 µM [9] was 97.9 ± 1% and the viability at 168 h, 100 µM [9] was 97 ± 2%. It also gave a viability at 168 h, 300 µM [9] of 96 ± 3%, a viability at 168 h, 500 µM [9] of 95.5 ± 3% and a viability at 168 h, 1000 µM [9] of 94.8 ± 3%.
